Experimental data taken from patent US7022480B1, “Exons of the hSKCa3/KCNN3 gene” (priority 2001, dated 2006).

How the values were obtained:
[1] = target: T1, SK2 channels in Jurkat T lymphocytes (Homo sapiens, UniProt Q9H2S1); assay: Whole-cell patch clamp of native SK2 current in Jurkat T lymphocytes; assay type: cell-based; details: transfected Jurkat T lymphocytes
T1 construct: endogenous in cells; host or cells: Jurkat T lymphocytes
Procedure: (§1) PC12 and Jurkat T cells were studied in the whole cell configuration of the patch clamp technique with a holding potential of −80 mV. SK and Kv current amplitude were determined in untransfected cells or in cells transfected with SKCa3-1b-GFP, SKCa3-1b-IRES-GFP, or control constructs (GFP vector alone, GFP-Kv1.7). […] Brightly GFP-positive cells were identified under a fluorescence microscope to allow the analysis of cells expressing high levels of the channel constructs for electrophysiological studies. Control constructs were expressed at equivalently high levels as assessed by the intensity of the GFP signal.
(§2) To activate SK channels, the pipette solution contained (in mM): 145 K^+ aspartate, 2 MgCl2, 10 HEPES, 10 K2EGTA, and 8.5 CaCl2 (1 μM free Ca^2+), pH 7.2, 290–310 mOsm. […] The amplitude of the KV current was measured as the maximum current at 30 mV in 160 Na^+ aspartate. […]
(§3) Human Jurkat T lymphocyte cell line was chosen for these experiments because they express SK2 channels and no other SK channels, along with voltage-gated Kv1.3 channels that could serve as an internal control (Fanger et al, J. Biol. Chem. 2001; 276: 12249–12256; Grissmer et al, J. Gen. Physiol. 1992; 99: 63–84; Desai et al, J. Biol. Chem. 2000; 275: 39954–39963.). Using the electrophysiological protocol described above for PC12 cells, SK2 and Kv1.3 currents in Jurkat cells were measured. […]

[2] = target: T2, Kv1.3 channels in Jurkat T lymphocytes (Homo sapiens, UniProt P22001); assay: Whole-cell patch clamp of Kv1.3 current in Jurkat T lymphocytes (internal control); assay type: cell-based; details: transfected Jurkat T lymphocytes
T2 construct: endogenous in cells; host or cells: Jurkat T lymphocytes
T2 sequence (P22001 whole entry): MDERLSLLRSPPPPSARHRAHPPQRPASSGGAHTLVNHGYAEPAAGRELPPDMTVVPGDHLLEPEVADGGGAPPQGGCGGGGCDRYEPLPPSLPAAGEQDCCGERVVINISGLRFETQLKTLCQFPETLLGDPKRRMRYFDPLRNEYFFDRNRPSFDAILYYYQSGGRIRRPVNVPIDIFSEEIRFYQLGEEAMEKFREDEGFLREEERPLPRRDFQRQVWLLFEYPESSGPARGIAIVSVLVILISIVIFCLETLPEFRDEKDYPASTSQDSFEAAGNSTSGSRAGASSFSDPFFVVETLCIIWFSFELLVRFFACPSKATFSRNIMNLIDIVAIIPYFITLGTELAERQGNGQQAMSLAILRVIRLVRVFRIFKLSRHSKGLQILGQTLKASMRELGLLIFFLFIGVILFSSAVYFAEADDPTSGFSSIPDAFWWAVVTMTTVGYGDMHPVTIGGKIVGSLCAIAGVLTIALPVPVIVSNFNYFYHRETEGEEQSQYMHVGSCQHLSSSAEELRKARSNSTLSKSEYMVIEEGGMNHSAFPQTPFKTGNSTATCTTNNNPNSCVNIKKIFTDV
Procedure: as §1, §2, §3

SKCa3-1a currents = assay: Co-expression with SKCa3-1a in mammalian cells, calcium-activated currents; assay type: cell-based; details: untagged or with a GFP tag
Chain of SKCa3-1a currents (Q9UGI6 81-731): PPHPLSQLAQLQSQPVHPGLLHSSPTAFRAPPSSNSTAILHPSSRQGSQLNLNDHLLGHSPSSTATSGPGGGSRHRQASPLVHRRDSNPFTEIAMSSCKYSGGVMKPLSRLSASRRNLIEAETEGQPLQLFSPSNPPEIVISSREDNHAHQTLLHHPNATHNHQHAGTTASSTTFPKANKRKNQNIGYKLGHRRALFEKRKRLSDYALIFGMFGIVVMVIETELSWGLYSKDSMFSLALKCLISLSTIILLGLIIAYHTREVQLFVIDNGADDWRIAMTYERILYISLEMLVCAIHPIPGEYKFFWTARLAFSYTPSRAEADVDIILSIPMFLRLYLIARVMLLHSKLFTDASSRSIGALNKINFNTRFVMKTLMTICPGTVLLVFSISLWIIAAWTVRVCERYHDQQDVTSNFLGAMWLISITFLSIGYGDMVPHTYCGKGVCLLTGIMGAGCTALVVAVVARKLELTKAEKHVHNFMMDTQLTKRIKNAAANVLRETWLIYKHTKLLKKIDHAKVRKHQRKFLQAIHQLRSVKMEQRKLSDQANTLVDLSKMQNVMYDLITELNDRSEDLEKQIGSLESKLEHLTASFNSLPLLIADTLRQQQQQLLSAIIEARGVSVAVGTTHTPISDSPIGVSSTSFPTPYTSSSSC
Source text: When normally expressed in mammalian cells, native or green fluorescence protein (GFP) tagged SKCa3-1a produces robust apamin- and Leiurus toxin-sensitive calcium-activated currents (Shakkottai et al., J. Biol. Chem. 276 (46): 43145–43151, 2001.).

GFP-SKCa1 currents = assay: Co-expression with GFP-SKCa1 in mammalian cells, calcium-activated currents; assay type: cell-based; details: expressed in mammalian cells
Chain of GFP-SKCa1 currents (Q92952 2-543): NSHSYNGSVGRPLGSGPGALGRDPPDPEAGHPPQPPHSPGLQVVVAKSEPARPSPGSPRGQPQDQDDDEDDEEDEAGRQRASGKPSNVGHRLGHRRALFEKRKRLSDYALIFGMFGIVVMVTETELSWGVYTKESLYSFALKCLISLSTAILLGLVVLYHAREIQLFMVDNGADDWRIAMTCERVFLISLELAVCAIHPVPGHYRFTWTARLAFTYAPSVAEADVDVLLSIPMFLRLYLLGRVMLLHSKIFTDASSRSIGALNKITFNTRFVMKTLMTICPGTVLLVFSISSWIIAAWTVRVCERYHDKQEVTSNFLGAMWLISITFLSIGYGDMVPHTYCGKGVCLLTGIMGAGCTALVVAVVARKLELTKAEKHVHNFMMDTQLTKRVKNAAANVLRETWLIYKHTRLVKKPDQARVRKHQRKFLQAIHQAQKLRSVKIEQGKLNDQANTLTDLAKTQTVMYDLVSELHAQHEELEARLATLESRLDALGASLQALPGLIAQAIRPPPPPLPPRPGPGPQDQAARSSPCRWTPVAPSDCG
Source text: GFP-SKCa1 produces robust calcium-activated currents when expressed in COS-7 cells (Shakkottai et al., J. Biol. Chem. 276 (46): 43145–43151, 2001.). When co-expressed with fluorescently labeled SKCa3-1b (Tomita et al, 2002 Mol. Psych. In press) or fluorescently labeled SKCa3-1c, dominant-negative suppression of SKCa3-1a is seen. Similarly, fluorescently labeled SKCa3-1b (Tomita et al, 2002 Mol. Psych. In press) and fluorescently labeled SKCa3-1c dominant-negatively suppress endogenous SKCa currents present in PC12 cells (Sun et al., J. Hum. Genet. 46, 463–470, 2001.).

SKCa and IKCa1 channel = details: reported in the literature; cited from earlier work

T1 sequence (Q9H2S1 whole entry): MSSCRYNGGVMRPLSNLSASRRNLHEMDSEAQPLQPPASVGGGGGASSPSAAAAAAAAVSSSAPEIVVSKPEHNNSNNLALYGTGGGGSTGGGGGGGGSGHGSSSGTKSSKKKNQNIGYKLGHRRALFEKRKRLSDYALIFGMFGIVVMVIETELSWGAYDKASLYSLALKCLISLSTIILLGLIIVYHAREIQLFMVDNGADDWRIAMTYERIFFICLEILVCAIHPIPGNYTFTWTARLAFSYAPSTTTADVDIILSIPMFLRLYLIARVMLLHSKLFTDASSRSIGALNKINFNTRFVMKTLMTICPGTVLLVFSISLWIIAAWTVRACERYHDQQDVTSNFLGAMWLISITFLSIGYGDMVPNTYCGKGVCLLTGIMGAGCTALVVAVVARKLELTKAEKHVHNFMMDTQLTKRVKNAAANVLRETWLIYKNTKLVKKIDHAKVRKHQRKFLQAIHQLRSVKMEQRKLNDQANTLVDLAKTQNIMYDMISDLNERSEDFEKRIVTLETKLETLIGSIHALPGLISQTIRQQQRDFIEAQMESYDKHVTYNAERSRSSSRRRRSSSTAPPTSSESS

| Molecule | effect of transfection on native SK2 current [1] | effect of transfection on control Kv1.3 current [2] | effect of co-expression on SKCa3-1a current (SKCa3-1a currents) | effect on GFP-SKCa1 currents (GFP-SKCa1 currents) | effect on SKCa and IKCa1 channel opening (SKCa and IKCa1 channel) |
| --- | --- | --- | --- | --- | --- |
| SKCa3-1b: isoform variant of the SK3 gene (SEQ ID NO: 2) using exon 1b, lacking N-terminus and S1 segment | suppressed | unaffected | selective dramatic inhibition | negative dominantly suppress |  |
| SKCa3-1c: isoform variant of the SK3 gene (SEQ ID NO: 4) using exon 1c, lacking N-terminus and S1 segment |  |  | comparable results | negative dominantly suppress |  |
| CCn1c(=O)[nH]c2ccccc21 [1-ethyl-2-benzimidazolinone] |  |  |  |  | enhance SKCa and IKCa1 channel opening |
